From article PMC5158193, “Molecular Characterization and Functional Analysis of a Novel Calcium-Dependent Protein Kinase 4 from Eimeria tenella” (PLoS ONE, 2016)

The compounds below were run against T1, rEtCDPK4 (Eimeria tenella, UniProt A0A165BP42) (assay: PepTag C1-peptide non-radioactive kinase assay, A570). Conditions: 1 mM ATP, 1.3 mM CaCl2, 10 mM MgCl2, phosphatidylserine, 47.5 μM PepTag C1-peptide, pH 7.4, 30 °C.
T1 construct: gene CDPK4; fragment, ORF bp 118-1777 (cDNA 303-1962); N-terminal 6xHis (pCold I), E. coli BL21; kinase domain and all six EF hands
T1 sequence (A0A165BP42 40-592): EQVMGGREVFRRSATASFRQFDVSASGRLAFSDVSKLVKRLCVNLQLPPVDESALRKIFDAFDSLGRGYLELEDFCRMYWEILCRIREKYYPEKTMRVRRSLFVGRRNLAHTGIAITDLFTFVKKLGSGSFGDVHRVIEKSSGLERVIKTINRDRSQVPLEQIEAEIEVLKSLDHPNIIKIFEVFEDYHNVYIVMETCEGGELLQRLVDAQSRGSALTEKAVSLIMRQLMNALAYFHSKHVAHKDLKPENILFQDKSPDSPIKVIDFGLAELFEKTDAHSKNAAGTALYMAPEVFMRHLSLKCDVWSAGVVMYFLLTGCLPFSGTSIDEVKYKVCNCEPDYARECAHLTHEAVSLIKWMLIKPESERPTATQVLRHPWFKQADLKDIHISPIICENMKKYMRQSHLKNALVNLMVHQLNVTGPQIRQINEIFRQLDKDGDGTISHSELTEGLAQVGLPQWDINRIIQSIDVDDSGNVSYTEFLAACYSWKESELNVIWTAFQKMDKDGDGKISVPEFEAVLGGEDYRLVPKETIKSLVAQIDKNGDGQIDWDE
Assay type: biochemical
For `CC1CNCCN1S(=O)(=O)c1cccc2cnccc12` (centres unmarked) [H-7], the “kinase activity at 100 μM inhibitor” value was “W-7, H-7, H-89, staurosporine, Ro-31-8220 and myristoylated peptide significantly decreased enzyme activity”. For `NCCCCCCNS(=O)(=O)c1cccc2c(Cl)cccc12` [W-7], the “kinase activity at 100 μM inhibitor” value was “W-7, H-7, H-89, staurosporine, Ro-31-8220 and myristoylated peptide significantly decreased enzyme activity”. `Cn1cc(C2=C(c3cn(CCCSC(=N)N)c4ccccc34)C(=O)NC2=O)c2ccccc21` [Ro-31-8220] was tested, and the “kinase activity at 100 μM inhibitor” value was “W-7, H-7, H-89, staurosporine, Ro-31-8220 and myristoylated peptide significantly decreased enzyme activity”. For `O=S(=O)(NCCNC/C=C/c1ccc(Br)cc1)c1cccc2cnccc12` [H-89], the “kinase activity at 100 μM inhibitor” value was “W-7, H-7, H-89, staurosporine, Ro-31-8220 and myristoylated peptide significantly decreased enzyme activity”. In the case of `CN[C@@H]1C[C@H]2O[C@@](C)([C@@H]1OC)n1c3ccccc3c3c4c(c5c6ccccc6n2c5c31)C(=O)NC4` [staurosporine], the “kinase activity at 100 μM inhibitor” value is reported as “W-7, H-7, H-89, staurosporine, Ro-31-8220 and myristoylated peptide significantly decreased enzyme activity”.
